Results published in ChEMBL document CHEMBL3352684, “Discovery of MK-3697: a selective orexin 2 receptor antagonist (2-SORA) for the treatment of insomnia” (Bioorg Med Chem Lett, 2014).
Residue numbers refer to the chain shown, from its start. Activity calls are given as the source filed them. No cut-off for these calls is given here.

Key:
[1] = target: T1, Nuclear receptor subfamily 1 group I member 2 (Homo sapiens, UniProt O75469); test: Activation of PXR (unknown origin)
T1 sequence (O75469 whole entry): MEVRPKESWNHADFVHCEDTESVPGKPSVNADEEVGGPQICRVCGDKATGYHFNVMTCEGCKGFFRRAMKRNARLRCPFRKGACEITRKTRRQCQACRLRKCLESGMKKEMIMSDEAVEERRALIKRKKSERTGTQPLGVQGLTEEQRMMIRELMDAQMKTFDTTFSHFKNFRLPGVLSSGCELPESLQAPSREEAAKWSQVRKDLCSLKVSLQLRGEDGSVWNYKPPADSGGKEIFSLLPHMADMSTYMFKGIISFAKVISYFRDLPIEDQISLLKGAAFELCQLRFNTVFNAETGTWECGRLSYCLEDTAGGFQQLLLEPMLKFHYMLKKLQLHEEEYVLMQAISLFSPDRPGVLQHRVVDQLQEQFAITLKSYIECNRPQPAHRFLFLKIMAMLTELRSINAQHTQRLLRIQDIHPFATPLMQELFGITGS

[2] = AUC in Sprague-Dawley rat at 15 mg/kg, po; assay type: ADME, organism-based; design: dose 15 mg/kg, route oral; details: plasma
[3] = system: Mus musculus; test: Reduction in active wake sleep in mouse at 100 mg/kg, po after 2 hrs; assay type: functional, organism-based; design: dose 100 mg/kg
[4] = system: Mus musculus; test: Increase in slow wave sleep in OX2R-knockout mouse at 100 mg/kg, po after 2 hrs; assay type: functional, organism-based; design: dose 100 mg/kg
[5] = target: T1, Nuclear receptor subfamily 1 group I member 2; test: Activation of PXR (unknown origin) at 30 uM relative to rifampicin
[6] = organism: Rattus norvegicus; test: Ex vivo receptor occupancy at human OX2R expressed in transgenic rat at plasma concentration of 1.06 uM; assay type: functional
[7] = Clearance in dog with cassette dosing; assay type: ADME, organism-based, Canis lupus familiaris; details: in vivo
[8] = system: Mus musculus; test: Increase in rapid eye movement sleep in OX2R-knockout mouse at 100 mg/kg, po after 2 hrs; assay type: functional, organism-based; design: dose 100 mg/kg
[9] = target: T2, Orexin receptor type 2 (Mus musculus) (UniProt P58308); test: Antagonist activity at mouse OX2R by FLIPR assay
T2 sequence (whole entry): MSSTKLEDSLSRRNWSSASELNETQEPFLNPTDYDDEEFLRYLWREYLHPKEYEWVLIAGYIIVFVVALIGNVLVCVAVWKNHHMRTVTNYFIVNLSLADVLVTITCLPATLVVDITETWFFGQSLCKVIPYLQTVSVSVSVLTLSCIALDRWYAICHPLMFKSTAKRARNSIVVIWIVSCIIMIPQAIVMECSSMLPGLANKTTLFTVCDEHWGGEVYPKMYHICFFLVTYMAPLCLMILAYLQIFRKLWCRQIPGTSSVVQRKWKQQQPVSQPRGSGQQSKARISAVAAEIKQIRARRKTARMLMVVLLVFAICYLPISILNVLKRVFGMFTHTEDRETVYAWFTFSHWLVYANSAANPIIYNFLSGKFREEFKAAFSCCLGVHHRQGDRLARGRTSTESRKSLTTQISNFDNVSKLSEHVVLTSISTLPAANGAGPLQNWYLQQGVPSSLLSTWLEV

[10] = AUC (0 to infinity) in rat at 5 mg/kg, po; assay type: ADME, organism-based; design: time infinity, dose 5 mg/kg, route oral; details: plasma
[11] = Clearance in dog at 1 mg/kg, iv; assay type: ADME, organism-based, Canis lupus familiaris; design: dose 1 mg/kg, route intravenous; details: in vivo
[12] = system: Mus musculus; test: Increase in rapid eye movement sleep in mouse at 100 mg/kg, po after 2 hrs; assay type: functional, organism-based; design: dose 100 mg/kg
[13] = Oral bioavailability in […] dog at 3 mg/kg; assay type: ADME, organism-based, Canis lupus familiaris; details: in vivo
[14] = system: Rattus norvegicus; test: Increase in rapid eye movement sleep in Sprague-Dawley rat at 15 mg/kg, po after 2 hrs; assay type: functional, organism-based; design: dose 15 mg/kg
[15] = Cmax in mouse at 100 mg/kg, po; assay type: ADME, organism-based; design: dose 100 mg/kg, route oral; details: in vivo
[16] = Cmax in dog at 3 mg/kg, po; assay type: ADME, organism-based, Canis lupus familiaris; design: dose 3 mg/kg, route oral; details: in vivo
[17] = Drug uptake in Sprague-Dawley rat CSF at 15 mg/kg, po; assay type: ADME, organism-based, Cerebrospinal fluid; design: dose 15 mg/kg, route oral; details: in vivo, read-out: Drug uptake
[18] = Cmax in rat at 5 mg/kg, po; assay type: ADME, organism-based; design: dose 5 mg/kg, route oral; details: in vivo
[19] = Cmax in Sprague-Dawley rat at 15 mg/kg, po; assay type: ADME, organism-based; design: dose 15 mg/kg, route oral; details: in vivo
[20] = target: T3, Orexin receptor type 2 (Canis lupus familiaris) (UniProt Q9TUP7); test: Antagonist activity at dog OX2R by FLIPR assay
T3 sequence (whole entry): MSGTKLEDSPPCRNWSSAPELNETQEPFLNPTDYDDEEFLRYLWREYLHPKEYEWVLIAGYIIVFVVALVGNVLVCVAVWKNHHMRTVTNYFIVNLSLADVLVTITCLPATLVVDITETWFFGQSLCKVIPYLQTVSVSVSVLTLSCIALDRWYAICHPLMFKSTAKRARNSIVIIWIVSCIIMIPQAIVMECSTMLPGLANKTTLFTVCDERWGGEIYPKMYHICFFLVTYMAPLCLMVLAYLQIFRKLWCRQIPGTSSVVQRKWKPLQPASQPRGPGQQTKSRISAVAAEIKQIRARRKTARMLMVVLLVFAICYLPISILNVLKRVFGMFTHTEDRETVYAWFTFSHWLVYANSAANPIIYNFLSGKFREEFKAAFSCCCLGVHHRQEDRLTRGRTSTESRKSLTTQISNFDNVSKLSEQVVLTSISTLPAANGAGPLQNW

[21] = Half life in dog at 1 mg/kg, iv; assay type: ADME, organism-based, Canis lupus familiaris; design: dose 1 mg/kg, route intravenous; details: in vivo
[22] = system: Mus musculus; test: Increase in slow wave sleep in mouse at 100 mg/kg, po after 2 hrs; assay type: functional, organism-based; design: dose 100 mg/kg
[23] = Plasma protein binding in dog; assay type: ADME, cell-free, Canis lupus familiaris; details: read-out: PPB (converted)
[24] = system: Canis familiaris; test: Increase in slow wave sleep in dog at 3 mg/kg, po after 2 hrs; assay type: functional, organism-based; design: dose 3 mg/kg; details: Canis lupus familiaris
[25] = Tmax in dog at 3 mg/kg, po; assay type: ADME, organism-based, Canis lupus familiaris; design: dose 3 mg/kg, route oral; details: in vivo
[26] = target: T4, Orexin receptor type 2 (Rattus norvegicus) (UniProt P56719); test: Antagonist activity at Sprague-Dawley rat OX2R by FLIPR assay
T4 sequence (whole entry): T2 sequence (whole entry) with S11P, C193R, H213R, I240V, Q269P, H387R, V424A

[27] = Plasma protein binding in Sprague-Dawley rat; assay type: ADME, cell-free; details: read-out: PPB (converted)
[28] = AUC in dog at 3 mg/kg, po; assay type: ADME, organism-based, Canis lupus familiaris; design: dose 3 mg/kg, route oral; details: plasma

Q: Which results are given for `COc1ccc(CNC(=O)c2cc(-c3cncc(C)c3)ncc2-c2nccs2)nc1OC`?
A: EC50 [1]: > 30 µM; AUC [2]: 17.2 µM·h; Activity [3]: Active; Activity [4]: inactive; Activity [5]: 16%; Occ [6]: 90%; clearance [7]: 12 mL/min/kg; Activity [8]: inactive; INH [9]: 12 nM; AUC(0-inf) [10]: 3 µM·h; clearance [11]: 7.2 mL/min/kg; Activity [12]: Active; bioavailability [13]: 49%; Activity [14]: Active; Cmax [15]: 55300 nM; Cmax [16]: 2700 nM; concentration [17]: 900 nM; Cmax [18]: 2100 nM; Cmax [19]: 5300 nM; INH [20]: 16 nM; half-life [21]: 1.2 h; Activity [22]: Active; fraction unbound [23]: 0.169; Activity [24]: Active; Tmax [25]: 1 h; INH [26]: 31 nM; fraction unbound [27]: 0.164; AUC [28]: 9 µM·h
